Data reported in ChEMBL document CHEMBL1201862, “PubChem BioAssay data set” (2004).
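Exposure lasted 48 hours, with cells grown in 96-well plates and compounds tested at five concentrations. The concentration for 50% growth inhibition is given as GI50.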 Activity calls are given as the source filed them. No stated cut-off is given here; in the data, active = GI50 up to about 1.1 µM and inactive = higher.

Legend:
Test in all cases: NCI tumour cell line growth inhibition, 48 h
SNB-19 = system: SNB-19
HOP-62 = system: HOP-62
RPMI-8226 = system: RPMI-8226
A498 = system: A498
ACHN = system: ACHN
CAKI-1 = system: CAKI-1
UACC-62 = system: UACC-62
LOX IMVI = system: LOX IMVI
UACC-257 = system: UACC-257
A549 = system: A549
SW-620 = system: SW-620
OVCAR-8 = system: OVCAR-8
SK-MEL-2 = system: SK-MEL-2
OVCAR-3 = system: OVCAR-3
EKVX = system: EKVX
TK-10 = system: TK-10

Measured: GI50

CC(=O)Nc1ccccc1Sc1ccccc1
inactive: SNB-19 > 100 µM | HOP-62 > 100 µM | RPMI-8226 > 100 µM | A498 > 100 µM | ACHN > 100 µM | CAKI-1 69.8 µM | UACC-62 > 100 µM | LOX IMVI > 100 µM | UACC-257 > 100 µM | A549 > 100 µM | SW-620 > 100 µM | OVCAR-8 > 100 µM | SK-MEL-2 > 100 µM | OVCAR-3 2.6 µM | EKVX > 100 µM | TK-10 > 100 µM

CCOC(=O)CC1=N/C(=N/C(=N)N[N+](=O)[O-])SC1
inactive: SNB-19 > 100 µM | HOP-62 > 100 µM | A498 > 100 µM | ACHN > 100 µM | CAKI-1 > 100 µM | UACC-62 > 100 µM | LOX IMVI > 100 µM | UACC-257 > 100 µM | A549 > 100 µM | SW-620 > 100 µM | OVCAR-8 > 100 µM | SK-MEL-2 > 100 µM | OVCAR-3 > 100 µM | EKVX > 100 µM | TK-10 > 100 µM

Cc1ccc(C(=O)C(C2=Nc3nnc(N)n3C2=O)C2=Nc3nnc(N)n3C2=O)cc1
inactive: SNB-19 > 100 µM | RPMI-8226 > 100 µM | A498 > 100 µM | ACHN > 100 µM | CAKI-1 > 100 µM | UACC-62 > 100 µM | LOX IMVI > 100 µM | UACC-257 > 100 µM | A549 > 100 µM | SW-620 > 100 µM | OVCAR-8 > 100 µM | SK-MEL-2 > 100 µM | OVCAR-3 > 100 µM | EKVX > 100 µM | TK-10 > 100 µM

CC1SC2=NC3=C(c4ccccc4C3=O)C(c3ccc(Br)cc3)N2C1=O (configuration not stated)
inactive: SNB-19 38 µM | HOP-62 > 100 µM | RPMI-8226 31.6 µM | A498 > 100 µM | ACHN > 100 µM | CAKI-1 80.9 µM | UACC-62 30.6 µM | UACC-257 > 100 µM | A549 57.7 µM | SW-620 51.9 µM | OVCAR-8 47.3 µM | SK-MEL-2 48.1 µM | OVCAR-3 37.2 µM | EKVX 60 µM | TK-10 > 100 µM

O=C1O[C@@H](c2ccccc2)C[C@H]1CN1CCOCC1
inactive: HOP-62 > 100 µM | RPMI-8226 14.6 µM | A498 > 100 µM | ACHN > 100 µM | CAKI-1 20.4 µM | UACC-62 > 100 µM | LOX IMVI > 100 µM | UACC-257 > 100 µM | A549 > 100 µM | SW-620 > 100 µM | OVCAR-8 > 100 µM | SK-MEL-2 > 100 µM | OVCAR-3 > 100 µM | EKVX > 100 µM | TK-10 84.9 µM

OC12CCCCCC1(N1CCOCC1)c1ccccc12 (configuration not stated)
inactive: SNB-19 > 100 µM | HOP-62 > 100 µM | RPMI-8226 > 100 µM | A498 > 100 µM | ACHN > 100 µM | CAKI-1 > 100 µM | UACC-62 > 100 µM | LOX IMVI > 100 µM | UACC-257 > 100 µM | A549 > 100 µM | SW-620 > 100 µM | OVCAR-8 > 100 µM | SK-MEL-2 > 100 µM | OVCAR-3 > 100 µM | TK-10 > 100 µM

C/C(CC(=O)Nc1cccc(Cl)c1C)=N\NC(=O)c1ccncc1
inactive: HOP-62 > 100 µM | RPMI-8226 > 100 µM | UACC-62 > 100 µM | LOX IMVI > 100 µM | UACC-257 > 100 µM | A549 > 100 µM | SW-620 > 100 µM | OVCAR-8 > 100 µM | SK-MEL-2 > 100 µM | OVCAR-3 > 100 µM | EKVX > 100 µM | TK-10 > 100 µM

CCOC(=O)C1(C(=O)OCC)OC(=O)NC2=C1CCCC2
inactive: SNB-19 > 100 µM | HOP-62 > 100 µM | RPMI-8226 > 100 µM | A498 > 100 µM | ACHN > 100 µM | LOX IMVI > 100 µM | UACC-257 > 100 µM | A549 > 100 µM | SW-620 > 100 µM | OVCAR-8 > 100 µM | SK-MEL-2 > 100 µM | OVCAR-3 > 100 µM | EKVX > 100 µM | TK-10 > 100 µM

O=C(Sc1sc(=S)sc1SC(=O)c1ccccc1)c1ccccc1
inactive: SNB-19 37.1 µM | HOP-62 25.4 µM | RPMI-8226 > 100 µM | A498 31.5 µM | ACHN > 100 µM | CAKI-1 > 100 µM | UACC-62 21.9 µM | UACC-257 > 100 µM | A549 27.6 µM | SW-620 > 100 µM | OVCAR-8 83.4 µM | SK-MEL-2 41.4 µM | OVCAR-3 > 100 µM | EKVX 53.8 µM | TK-10 > 100 µM

Cn1c(=O)nc2n(-c3cccc(Br)c3)c3ccccc3nc-2c1=O
inactive: SNB-19 1.38 µM | HOP-62 14.8 µM | RPMI-8226 4.57 µM | A498 10.2 µM | ACHN 1.36 µM | CAKI-1 12.3 µM | UACC-62 1.63 µM | UACC-257 2.09 µM | A549 2.92 µM | SW-620 2.61 µM | OVCAR-8 3.56 µM | SK-MEL-2 5.06 µM | OVCAR-3 2.38 µM | EKVX 3.79 µM | TK-10 11.3 µM
